Measurements: patent publication US5711966A, “Method of treating malaria with desbutylhalofantrine” (priority 1996, dated 1998)
“Also recorded” adds a separate entry of the source. Where two headings read alike, the source gives them in different places.

How the values were obtained:
[1] = cited from earlier work; for arrhythmia torsades de pointes: in patients receiving the drug; for cardiotoxicity / potentially fatal arrhythmias: use for treatment of malaria
[2] = tested on: delayed rectifier potassium channel; experiment: Block of repolarizing current (delayed rectifier potassium channel) in isolated ventricular myocytes, whole cell patch-clamp; type: cell-based; settings: isolated feline myocytes
Protocol: (§1) A comparison of the parent drug, halofantrine with the metabolite desbutylhalofantrine was conducted to determine which agent was primarily responsible for QT interval prolongation. The effects of halofantrine and its active metabolite (N-desbutylhalofantrine) on repolarization were examined in an isolated perfused heart model. […] In an attempt to further elucidate the mechanism for QT interval prolongation, the effects of racemic halofantrine, its stereoisomers and N-desbutylhalofantrine on repolarizing currents in isolated ventricular myocytes were studied using patch-clamp techniques.
Individual Cardiac Myocytes:
The cardiac electro-pharmacologic effects of halofantrine, its stereoisomers and N-desbutylhalofantrine on repolarizing currents such as the delayed rectifier potassium channel were studied in feline ventricular myocytes in vitro by the method described by Woosley, et al. (JAMA 269:1532-1536 (1993)). Briefly, rod-shaped and quiescent ventricular cells were obtained and used for electrophysiological recordings using the whole cell, single-suction pipette, voltage-clamp ("patch-clamp") technique. Computer-controlled voltage clamp pulses (duration 750 ms) were used to elicit currents. Current signals were directed to a computer for storage and data analysis. […]

[3] = tested on: isolated perfused cat heart (QT interval); experiment: QT interval prolongation in isolated perfused heart; settings: concentrations from 1 to 20 μM, pacing cycle length 400 msec
Protocol: Comparative studies evaluating prolongation of the QT interval using quinidine, halofantrine, and desbutylhalofantrine were performed on isolated perfused animal hearts. […] The ability to treat malaria with this metabolite without causing cardiotoxicity greatly improves the safety of antimalarial treatment.
as §1
The effects of halofantrine and its metabolite on repolarization were examined in the isolated perfused cat heart by the method of Woosley, et al. (JAMA 269:1532-1536 (1993)). Briefly, hearts were obtained from healthy, mature anesthetized cats and perfused in a Lagendorff apparatus maintained at 37° C. […] The AV node was destroyed by cautery to produce complete heart block and allow observations at slow cycle lengths. […]

[4] = tested on: malaria; settings: teaching of U.S. Pat. No. 5,250,734 to Rossignol, et al; cited from earlier work
[5] = tested on: Plasmodium falciparum; experiment: In vitro studies against various clones of Plasmodium falciparum; type: cell-based
Protocol: Dosage of 500 mg every six hours for three doses on day one with repeat of that dosage on day 7 for a total dosage of 3000 mg is appropriate for most treatment purposes in adults. However, total dosage range of 50 to 5000 mg can be given depending on the condition, age and size of the patient. Desbutylhalofantrine may also be given at dosage of 50 to 1000 mg as a prophylactic measure. Dosage may be given daily or one day per week. Again, dosage will be determined by the clinician in accord with the needs of the particular patient. When given as a prophylactic agent, the administration may be continued for several months.

Compound	arrhythmia torsades de pointes [1]	prolongation of the QT interval [3]	also measured
CCCCN(CCCC)CCC(O)c1cc2c(Cl)cc(Cl)cc2c2cc(C(F)(F)F)ccc12 (racemic) [halofantrine]	torsades de pointes has been seen in patients	resulted in prolongation of the QT interval	cardiotoxicity / potentially fatal arrhythmias [1]: can induce potentially fatal arrhythmias; cardiotoxicity / potentially fatal arrhythmias ([1]; listed as Halofantrine): has been shown to cause cardiotoxicity; block of the delayed rectifier potassium channel [2]: produced a stereo-selective block of the delayed rectifier potassium channel
CCN(CC)CCCC(C)Nc1ccnc2cc(Cl)ccc12 (centres unmarked) [chloroquine]	torsades de pointes has been seen in patients		
CCCCNCCC(O)c1cc2c(Cl)cc(Cl)cc2c2cc(C(F)(F)F)ccc12 (centres unmarked) [desbutylhalofantrine]		did not prolong the QT interval even when concentrations were increased to twenty fold the concentration at which halofantrine resulted in prolongation of the QT interval; also recorded: had minimal effect on the QT interval relative to the baseline	effectiveness for treatment of malaria relative to halofantrine [4]: less effective than halofantrine for treatment of malaria; potency relative to parent compound halofantrine against clones of Plasmodium falciparum [5]: approximately equipotent with the parent compound
C=C[C@H]1C[N@@]2CC[C@H]1C[C@@H]2[C@@H](O)c1ccnc2ccc(OC)cc12 [quinidine]	torsades de pointes has been seen in patients		
C=C[C@H]1C[N@@]2CC[C@H]1C[C@H]2[C@H](O)c1ccnc2ccc(OC)cc12 [quinine]	torsades de pointes has been seen in patients		
